Reference: ChEMBL document CHEMBL2406986, “Correlation of hydrogen-bonding propensity and anticancer profile of tetrazole-tethered combretastatin analogues” (Bioorg Med Chem Lett, 2013)
Values belong to the compound of their own block, whether it stands above or below them.

Experiments:
HeLa = assay: Cytotoxicity against human HeLa cells assessed as growth inhibition after 48 hrs by MTT assay; assay type: functional, cell-based
[1] = Inhibition of bovine brain tubulin assembly preincubated for 15 mins followed by GTP addition measured for 20 mins by spectrophotometric analysis; parameters: species or system Bos taurus
Bos taurus = species: Bos taurus; assay: Displacement of [3H]colchicine from bovine brain tubulin at 5 uM after 10 mins relative to control
MCF7 = assay: Cytotoxicity against human MCF7 cells assessed as growth inhibition after 48 hrs by MTT assay; assay type: functional, cell-based; conditions: MCF7, 48 h
A549 = assay: Cytotoxicity against human A549 cells assessed as growth inhibition after 48 hrs by MTT assay; assay type: functional, cell-based; conditions: A549, 48 h
[2] = Cytotoxicity against human H1299 cells assessed as growth inhibition after 48 hrs by MTT assay; assay type: functional, cell-based; conditions: NCI-H1299, 48 h

SMILES: COc1ccc(-c2nnnn2-c2cc(OC)c(OC)c(OC)c2O)c(O)c1
- IC50 (HeLa): 45000 nM
- IC50 [1]: > 20000 nM
- IC50 (MCF7): 46 µM
- IC50 (A549): 50 µM
- IC50 [2]: 49 µM

SMILES: COc1ccc(/C=C\c2cc(OC)c(OC)c(OC)c2)cc1O [COMBRETASTATIN A4]
- IC50 (MCF7): 0.098 µM
- IC50 (A549): 0.28 µM
- IC50 [2]: 0.0062 µM

SMILES: COc1ccc(-c2nnnn2-c2cc(OC)c(OC)c(OC)c2)c(O)c1N
- IC50 (HeLa): 900 nM
- IC50 [1]: 2200 nM
- inhibition (Bos taurus): 69%
- IC50 (MCF7): 2.9 µM
- IC50 (A549): 0.52 µM
- IC50 [2]: 4 µM

Continued, in another order:

- IC50 [1]: 2700 nM
- inhibition (Bos taurus): 52%
SMILES: COc1ccc(-c2nnnn2-c2cc(OC)c(OC)c(OC)c2)c(O)c1
- IC50 (HeLa): 2400 nM
- IC50 (MCF7): 8.2 µM
- IC50 (A549): 6.4 µM
- IC50 [2]: 7.9 µM

- IC50 [1]: 2500 nM
- inhibition (Bos taurus): 62%
SMILES: COc1ccc(-c2nnnn2-c2cc(OC)c(OC)c(OC)c2)c(O)c1O
- IC50 (HeLa): 950 nM
- IC50 (MCF7): 6.6 µM
- IC50 (A549): 6.7 µM
- IC50 [2]: 8.8 µM

- IC50 [1]: > 20000 nM
SMILES: COc1ccc(-c2nnnn2-c2cc(OC)c(OC)c(OC)c2O)cc1
- IC50 (HeLa): 92000 nM
- IC50 (MCF7): 72 µM
- IC50 (A549): > 100 µM
- IC50 [2]: 40 µM
